Test results from ChEMBL document CHEMBL4004788, “Cyclin-Dependent Kinase (CDK) Inhibitors: Structure-Activity Relationships and Insights into the CDK-2 Selectivity of 6-Substituted 2-Arylaminopurines” (J Med Chem, 2017).
pIC50: −log10 of the molar value. Activity calls are given as the source filed them. The rule behind the calls is not given here.

Key:
[1] = biological target: Cyclin-dependent kinase 2 (Homo sapiens, UniProt P24941)
Description: Inhibition of CDK2 (unknown origin)

A-375 [2] = experiment: Growth inhibition of Rb-proficient human A375 cells after 120 hrs by SRB assay; format: functional
MDA-MB-231 [3] = experiment: Growth inhibition of Rb-proficient human MDA-MB-231 cells after 120 hrs by SRB assay; format: functional
Calu-6 [4] = experiment: Growth inhibition of Rb-proficient human Calu6 cells after 120 hrs by SRB assay; format: functional
SJSA-1 [5] = experiment: Growth inhibition of Rb-proficient human SJSA1 cells after 120 hrs by SRB assay; format: functional
Skut1B [6] = experiment: Growth inhibition of Rb-proficient human SK-UT-1B cells after 120 hrs by SRB assay; format: functional
Homo sapiens = organism: Homo sapiens; experiment: Inhibition of Cdk4/Cyclin D (unknown origin) relative to untreated control; settings: concentration not given here
A-375 [7] = experiment: Growth inhibition of Rb-proficient human A375 cells at 30 uM after 120 hrs by SRB assay; format: functional, cell-based
MDA-MB-231 [8] = experiment: Growth inhibition of Rb-proficient human MDA-MB-231 cells at 30 uM after 120 hrs by SRB assay; format: functional, cell-based
SJSA-1 [9] = experiment: Growth inhibition of Rb-proficient human SJSA1 cells at 30 uM after 120 hrs by SRB assay; format: functional, cell-based
Calu-6 [10] = experiment: Growth inhibition of Rb-proficient human Calu6 cells at 30 uM after 120 hrs by SRB assay; format: functional, cell-based
Skut1B [11] = experiment: Growth inhibition of Rb-proficient human SK-UT-1B cells at 30 uM after 120 hrs by SRB assay; format: functional, cell-based
[12] = Chemical stability of the compound; format: physicochemical

Compound | growth inhibition (GI) (A-375 [2]) | growth inhibition (GI) (MDA-MB-231 [3]) | growth inhibition (GI) (Calu-6 [4]) | growth inhibition (GI) (SJSA-1 [5]) | growth inhibition (GI) (Skut1B [6]) | other results
CCC(C)Oc1nc(N)nc2[nH]cnc12 (centres undefined) | – | – | – | – | – | pIC50 [1]: 4.31
NS(=O)(=O)c1ccc(Nc2nc(OCC3CCCCC3)c3cn[nH]c3n2)cc1 | Dose-dependent effect | Dose-dependent effect | Dose-dependent effect | Dose-dependent effect | Dose-dependent effect | –
Nc1nc(OCC2CCCCC2)c2cn[nH]c2n1 | – | – | – | – | – | inhibition (Homo sapiens): 0%
NS(=O)(=O)c1ccc(Nc2nc(OCC3CCCCC3)c3cc[nH]c3n2)cc1 | Dose-dependent effect | Dose-dependent effect | Dose-dependent effect | Dose-dependent effect | Dose-dependent effect | –
NS(=O)(=O)c1ccc(Nc2nc(OCC3CCCCC3)c3nc[nH]c3n2)cc1 | Active | Active | Active | Active | Active | –
NS(=O)(=O)c1ccc(Nc2nc(-c3cccc(-c4ccccc4)c3)c3nc[nH]c3n2)cc1 | – | – | – | – | – | growth inhibition (GI) (A-375 [7]): inactive; growth inhibition (GI) (MDA-MB-231 [8]): inactive; growth inhibition (GI) (SJSA-1 [9]): inactive; growth inhibition (GI) (Calu-6 [10]): inactive; growth inhibition (GI) (Skut1B [11]): inactive
COc1nc(N)nc2nc[nH]c12 [METHYLGUANINE] | – | – | – | – | – | Stability [12]: Unstable
CC[C@@H](C)Oc1nc(Nc2ccc(S(N)(=O)=O)cc2)nc(N)c1C=O | – | – | – | – | – | pIC50 [1]: 9.10
